# US8796289B2 (AbbVie Inc., priority 2011, dated 2014)
# Target: GST-tagged-Wee1 kinase (Homo sapiens, UniProt P30291)
# Experiment: Wee1 time-resolved fluorescence equilibrium binding assay (displacement of Oregon Green-labeled ATP-competitive kinase probe)
# Protocol: Wee1 kinase was assayed using a time-resolved fluorescence equilibrium binding assay monitoring displacement of a rapidly reversible Oregon Green-labeled ATP-competitive kinase probe (N-(2-(2-(2-(4-(4-(5-chloro-4-(2-(1-hydroxycyclobutyl)thiazol-5-yl)-1H-pyrrolo[2,3-b]pyridin-2-yl)phenyl)piperazin-1-yl)ethoxy)ethoxy)ethyl)-2′,7′-difluoro-3′,6′-dihydroxy-3-oxo-3H-spiro[isobenzofuran-1,9′-xanthene]-5-carboxamide) by competitive Wee1 inhibitors.
# Chain of GST-tagged-Wee1 kinase (P30291 whole entry): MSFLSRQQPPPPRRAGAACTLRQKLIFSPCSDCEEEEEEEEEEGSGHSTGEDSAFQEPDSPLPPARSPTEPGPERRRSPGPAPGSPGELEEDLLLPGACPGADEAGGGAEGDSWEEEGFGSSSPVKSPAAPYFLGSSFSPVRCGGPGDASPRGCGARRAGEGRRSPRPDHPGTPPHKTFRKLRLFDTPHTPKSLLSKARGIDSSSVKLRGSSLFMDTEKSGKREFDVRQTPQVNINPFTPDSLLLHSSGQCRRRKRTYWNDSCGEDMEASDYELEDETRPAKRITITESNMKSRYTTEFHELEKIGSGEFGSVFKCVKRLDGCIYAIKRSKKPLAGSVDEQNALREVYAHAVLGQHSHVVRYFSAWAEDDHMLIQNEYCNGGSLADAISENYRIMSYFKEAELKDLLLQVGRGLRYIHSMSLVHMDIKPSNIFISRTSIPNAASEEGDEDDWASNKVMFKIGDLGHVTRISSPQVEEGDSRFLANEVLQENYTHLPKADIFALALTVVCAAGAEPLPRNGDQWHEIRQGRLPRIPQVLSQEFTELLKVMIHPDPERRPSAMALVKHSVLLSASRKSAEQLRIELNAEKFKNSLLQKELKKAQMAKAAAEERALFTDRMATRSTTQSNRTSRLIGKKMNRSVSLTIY
row,SMILES,Ki
1,"CC1(C)CNCc2cc(Nc3ncc4c(=O)n(C5CCCCC5)nc(-c5ccccn5)c4n3)ccc21 [Example 294, 6-cyclohexyl-2-[(4,4-dimethyl-1,2,3,4-tetrahydroisoquinolin-7-yl)amino]-8-(pyridin-2-yl)pyrimido[4,5-d]pyridazin-5(6H)-one]",629 nM
2,"CC(O)Cn1nc(-c2ccccn2)c2nc(Nc3ccc4c(c3)CNCC4(C)C)ncc2c1=O (stereo not shown) [Example 295, 2-[(4,4-dimethyl-1,2,3,4-tetrahydroisoquinolin-7-yl)amino]-6-(2-hydroxypropyl)-8-(pyridin-2-yl)pyrimido[4,5-d]pyridazin-5(6H)-one]",501 nM
3,"CN1CCN(c2ccc(Nc3ncc4c(=O)n(-c5c(F)cccc5Cl)nc(-c5ccncc5)c4n3)cc2)CC1 [Example 296, 6-(2-chloro-6-fluorophenyl)-2-{[4-(4-methylpiperazin-1-yl)phenyl]amino}-8-(pyridin-4-yl)pyrimido[4,5-d]pyridazin-5(6H)-one]",0.27 nM
4,"O=c1c2cnc(Nc3ccc(N4CCNCC4)cc3)nc2c(-c2ccncc2)nn1-c1c(F)cccc1Cl [Example 297, 6-(2-chloro-6-fluorophenyl)-2-{[4-(piperazin-1-yl)phenyl]amino}-8-(pyridin-4-yl)pyrimido[4,5-d]pyridazin-5(6H)-one]",0.19 nM
5,"CN1CCN(c2ccc(Nc3ncc4c(=O)n(-c5c(F)cccc5Cl)nc(-c5ccncn5)c4n3)cc2)CC1 [Example 298, 6-(2-chloro-6-fluorophenyl)-2-{[4-(4-methylpiperazin-1-yl)phenyl]amino}-8-(pyrimidin-4-yl)pyrimido[4,5-d]pyridazin-5(6H)-one]",1.8 nM
6,"CCOc1cccc(-c2nn(-c3c(F)cccc3Cl)c(=O)c3cnc(Nc4ccc(N5CCN(C)CC5)cc4)nc23)n1 [Example 299, 6-(2-chloro-6-fluorophenyl)-8-(6-ethoxypyridin-2-yl)-2-{[4-(4-methylpiperazin-1-yl)phenyl]amino}pyrimido[4,5-d]pyridazin-5(6H)-one]",0.99 nM
7,"Cc1nn(-c2c(Cl)cccc2Cl)c(=O)c2cnc(Nc3ccc4c(c3)CNCC43CC3)nc12 [Example 300, 6-(2,6-dichlorophenyl)-2-(2′,3′-dihydro-1′H-spiro[cyclopropane-1,4′-isoquinolin]-7′-ylamino)-8-methylpyrimido[4,5-d]pyridazin-5(6H)-one]",0.12 nM
8,"O=c1c2cnc(Nc3ccc(N4CCN(C5CCC5)CC4)cc3)nc2c(-c2ccncc2)nn1-c1c(Cl)cccc1Cl [Example 301, 2-{[4-(4-cyclobutylpiperazin-1-yl)phenyl]amino}-6-(2,6-dichlorophenyl)-8-(pyridin-4-yl)pyrimido[4,5-d]pyridazin-5(6H)-one]",2.7 nM
9,"CN1CCN(c2ccc(Nc3ncc4c(=O)n(-c5c(F)cccc5Cl)nc(-c5cnn(C)c5)c4n3)cc2)CC1 [Example 302, 6-(2-chloro-6-fluorophenyl)-2-{[4-(4-methylpiperazin-1-yl)phenyl]amino}-8-(1-methyl-1H-pyrazol-4-yl)pyrimido[4,5-d]pyridazin-5(6H)-one]",0.61 nM
10,"CN1CCN(c2ccc(Nc3ncc4c(=O)n(-c5c(F)cccc5Cl)nc(-c5cccc(O)n5)c4n3)cc2)CC1 [Example 303, 6-(2-chloro-6-fluorophenyl)-8-(6-hydroxypyridin-2-yl)-2-{[4-(4-methylpiperazin-1-yl)phenyl]amino}pyrimido[4,5-d]pyridazin-5(6H)-one]",2.8 nM
11,"CN1Cc2cc(Nc3ncc4c(=O)n(C5CCNCC5)nc(-c5ccccn5)c4n3)ccc2C(C)(C)C1 [Example 304, 6-(piperidin-4-yl)-8-(pyridin-2-yl)-2-[(2,4,4-trimethyl-1,2,3,4-tetrahydroisoquinolin-7-yl)amino]pyrimido[4,5-d]pyridazin-5(6H)-one]",610 nM
12,"CC1(C)CNCc2cc(Nc3ncc4c(=O)n(C5CCNCC5)nc(-c5ccccn5)c4n3)ccc21 [Example 305, 2-[(4,4-dimethyl-1,2,3,4-tetrahydroisoquinolin-7-yl)amino]-6-(piperidin-4-yl)-8-(pyridin-2-yl)pyrimido[4,5-d]pyridazin-5(6H)-one]",840 nM
13,"CC1(C)CNCc2cc(Nc3ncc4c(=O)n(-c5cccc6ccccc56)nc(-c5ccccn5)c4n3)ccc21 [Example 306, 2-[(4,4-dimethyl-1,2,3,4-tetrahydroisoquinolin-7-yl)amino]-6-(naphthalen-1-yl)-8-(pyridin-2-yl)pyrimido[4,5-d]pyridazin-5(6H)-one]",50 nM
14,"CN1CCN(c2ccc(Nc3ncc4c(=O)n(-c5c(Cl)cccc5Cl)nc(-c5cncs5)c4n3)cc2)CC1 [Example 307, 6-(2,6-dichlorophenyl)-2-{[4-(4-methylpiperazin-1-yl)phenyl]amino}-8-(1,3-thiazol-5-yl)pyrimido[4,5-d]pyridazin-5(6H)-one]",1.4 nM
15,Cc1nn(-c2c(F)cccc2Cl)c(=O)c2cnc(Nc3ccc4c(c3)CNCC43CC3)nc12 [Example 308],1 nM
16,"CN1CCN(c2ccc(Nc3ncc4c(=O)n(-c5c(F)cccc5Cl)nc(-c5ccccn5)c4n3)cc2)CC1 [Example 309, 6-(2-chloro-6-fluorophenyl)-2-{[4-(4-methylpiperazin-1-yl)phenyl]amino}-8-(pyridin-2-yl)pyrimido[4,5-d]pyridazin-5(6H)-one]",680 nM
17,"CN1CCN(c2ccc(Nc3ncc4c(=O)n(-c5cnccc5O)nc(-c5ccccn5)c4n3)cc2)CC1 [Example 310, 6-(4-hydroxypyridin-3-yl)-2-{[4-(4-methylpiperazin-1-yl)phenyl]amino}-8-(pyridin-2-yl)pyrimido[4,5-d]pyridazin-5(6H)-one]",3.6 nM
18,"Cc1nn(-c2c(F)cccc2Cl)c(=O)c2cnc(Nc3ccc4c(c3)CN(C)CC4(C)C)nc12 [Example 311, 6-(2-chloro-6-fluorophenyl)-8-methyl-2-[(2,4,4-trimethyl-1,2,3,4-tetrahydroisoquinolin-7-yl)amino]pyrimido[4,5-d]pyridazin-5(6H)-one]",1 nM
19,"Cc1nn(-c2c(F)cccc2Cl)c(=O)c2cnc(Nc3ccc(N4CCN(C)CC4)cc3)nc12 [Example 312, 6-(2-chloro-6-fluorophenyl)-8-methyl-2-{[4-(4-methylpiperazin-1-yl)phenyl]amino}pyrimido[4,5-d]pyridazin-5(6H)-one]",1.9 nM
20,"Cc1nn(-c2c(F)cccc2Cl)c(=O)c2cnc(Nc3ccc4c(c3)CN(C)CC43CC3)nc12 [Example 313, 6-(2-chloro-6-fluorophenyl)-8-methyl-2-[(2′-methyl-2′,3′-dihydro-1′H-spiro[cyclopropane-1,4′-isoquinolin]-7′-yl)amino]pyrimido[4,5-d]pyridazin-5(6H)-one]",2.6 nM
21,"Cc1nn(-c2c(Cl)cccc2Cl)c(=O)c2cnc(Nc3ccc(N4CCN(C)CC4)cc3)nc12 [Example 314, 6-(2,6-dichlorophenyl)-8-methyl-2-{[4-(4-methylpiperazin-1-yl)phenyl]amino}pyrimido[4,5-d]pyridazin-5(6H)-one]",1.2 nM
22,"O=c1c2cnc(Nc3ccc4c(c3)CNCC43CC3)nc2c(-c2cncs2)nn1-c1c(Cl)cccc1Cl [Example 315, 6-(2,6-dichlorophenyl)-2-(2′,3′-dihydro-1′H-spiro[cyclopropane-1,4′-isoquinolin]-7′-ylamino)-8-(1,3-thiazol-5-yl)pyrimido[4,5-d]pyridazin-5(6H)-one]",1.9 nM
